Here are results for one compound from patent US8541611B2 (dated 2013).

For orientation: melting point means the temperature, or range, at which the solid turns liquid.

In the case of `CC(C)N(C)S(=O)(=O)NC(=O)c1cc(N=C=O)c(F)cc1Cl`, the melting point lay within 144 to 148 °C.
